In patent US7264956B2, “Compounds and methods for inhibiting axillary malodour” (Givaudan SA, priority 2001, dated 2007):
Where two headings read alike, the source gives them in different places. Where a SMILES comes first, the peptide text is derived from it.

Assays:
[1] = target: T1, isolated enzyme (extracts of A×20) (Corynebacterium striatum, UniProt Q8GGD4); test: Low throughput screening for inhibitors, isolated enzyme (released lauric acid by GC); format: biochemical; conditions: substrate Nα-lauroyl-L-glutamine, 2 h; for inhibition at 5000 µM / % inhibition of the isolated enzyme: 5 mM
T1 construct: an enzyme may be isolated from cellular extracts obtained from wild-type bacterial strains; endogenous in cells; host or cells: Corynebacterium striatum Ax20 (DSM 14267), mechanically disrupted; crude extract or chromatographically purified enzyme
Description: (§1) Extracts of A×20 were prepared by mechanical disruption as described in Example 3. The extract (0.5 ml corresponding to 2 ml initial cell culture) was added to 3.5 ml of Buffer A and amended with 40 μl of substrate (Nα-lauroyl-L-glutamine, 5% stock solution in methanol). Parallel samples were additionally amended with potential inhibitory compounds to give a final concentration of 0.5 and 5 mM. The samples were incubated for 2 h and then extracted with MTBE and HCI and analysed for released lauric acid using capillary GC. By comparing the samples containing potential inhibitory compounds with control samples with enzyme and substrate only, the inhibition (%) was calculated. The same assay was also made either with purified enzyme from the wild-type strain (see example 3) or with extracts from E.coli Top 10/pBADgIII AMRE induced with arabinose (see example 6). Furthermore, the same assay was made using stationary phase living cells of A×20 instead of an isolated enzyme preparation. In this case successful uptake of the inhibitors into the cells and inhibition are measured simultaneously.

[2] = target: T2, enzyme activity in living cells of A×20 (Corynebacterium striatum, UniProt Q8GGD4); test: Low throughput screening for inhibitors, stationary phase living cells of A×20; format: cell-based; conditions: 5 mM; substrate Nα-lauroyl-L-glutamine, 2 h
T2 construct: stationary phase living cells of A×20; endogenous in cells; host or cells: Corynebacterium striatum Ax20, stationary-phase living cells
Description: as §1

[3] = target: T3, enzyme extracted from Corynebacterium striatum A×20 (AMRE, Nα-acyl-glutamine-aminoacylase) (Corynebacterium striatum, UniProt Q8GGD4); test: Substrate specificity of the enzyme (capillary GC of released acid or alcohol); format: biochemical; conditions: for Cleavage by enzyme: 500 ppm in Buffer A, 24 h incubation
T3 construct: an enzyme may be isolated from cellular extracts obtained from wild-type bacterial strains; endogenous in cells; host or cells: Corynebacterium striatum Ax20 (DSM 14267), mechanically disrupted; crude extract or chromatographically purified enzyme
Description: To understand in detail the structural requirements of substrates, the enzyme extracted from Corynebacterium striatum A×20 was incubated with a wide variety of said compounds related to the originally isolated Nα-3-methyl-3-hydroxy-hexanoyl-L-glutamine present in sweat. Each compound was used at a concentration of 500 ppm in Buffer A, and analysis of released acid or alcohol was done by capillary GC after 24 h of incubation. First, different modifications at the N-terminus were tested.

T2 sequence (Q8GGD4 2-400): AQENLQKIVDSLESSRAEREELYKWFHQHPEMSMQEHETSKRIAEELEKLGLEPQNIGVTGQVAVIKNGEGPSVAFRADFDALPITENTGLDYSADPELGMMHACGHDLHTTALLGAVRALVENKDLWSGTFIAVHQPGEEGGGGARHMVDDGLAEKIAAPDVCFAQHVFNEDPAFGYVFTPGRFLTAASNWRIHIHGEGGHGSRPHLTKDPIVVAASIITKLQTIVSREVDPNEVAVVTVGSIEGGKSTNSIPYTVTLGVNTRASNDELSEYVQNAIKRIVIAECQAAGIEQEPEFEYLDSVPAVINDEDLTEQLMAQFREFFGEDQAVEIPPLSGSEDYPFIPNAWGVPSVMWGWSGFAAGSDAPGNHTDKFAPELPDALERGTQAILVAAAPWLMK
T3 sequence (Q8GGD4 2-400): as above
T1 sequence (Q8GGD4 2-400): as above

Row | SMILES | cleavage of substrate by enzyme (in words) [3] | Cleavage by enzyme [3] | other results
1 | c1ccc(-c2ccccn2)nc1 [2,2′-bipyridyl] |  |  | inhibition at 5000 µM [1]: 65%
2 | O=P(O)(O)CN(CP(=O)(O)O)CP(=O)(O)O [Aminotri(methylene-phosphonic acid)] |  |  | % inhibition of enzyme activity in living cells [2]: 55.7%; % inhibition of the isolated enzyme [1]: 76.6%
3 | OC(CS)C(O)CS (stereo not drawn) [Dithiothreitol, 2,3-dihydroxy-butane-1,4-dithiol] |  |  | inhibition at 500 µM ([1]; 0.5 mM): 98%; inhibition at 5000 µM [1]: 100%
4 | CCC(NCCNC(CC)C(=O)O)C(=O)O (stereo not drawn) [Ethylen-diimino-dibutyric acid] |  |  | % inhibition of enzyme activity in living cells [2]: 53.7%; % inhibition of the isolated enzyme [1]: 44.3%
5 | O=C(O)CNCCNCC(=O)O [Ethylendiamine-2-2′-diacetic acid] |  |  | % inhibition of enzyme activity in living cells [2]: 58.3%; % inhibition of the isolated enzyme [1]: 100%
6 | c1ccc(CN(CCN(Cc2ccccn2)Cc2ccccn2)Cc2ccccn2)nc1 [N,N,N′,N′-tetrakis-(2-pyridylmethyl)-ethylendiamine] |  |  | inhibition at 5000 µM [2]: 85.2%; inhibition at 5000 µM [1]: 87.9%
7 | CCCC(C)=CC(=O)N[C@@H](CCC(N)=O)C(=O)O [Nα(3-methyl-2-hexenoyl)-L-glutamine] | able to be cleaved |  | 
8 | NC(=O)CC[C@H](NC(=O)OCCc1ccccc1)C(=O)O [Nα-2-Phenylethyloxycarbonyl-L-glutamine] | able to be cleaved |  | 
9 | CC(C)=CCCC(C)CCOC(=O)N[C@@H](CCC(N)=O)C(=O)O (stereo partly drawn) [Nα-3,7-Dimethyl-6-octenyloxycarbonyl-L-glutamine] | able to be cleaved |  | 
10 | NC(=O)CC[C@H](NC(=O)OCCC12CC3CC(CC(C3)C1)C2)C(=O)O [Nα-(2-Adamantan-1-yl-ethoxycarbonyl)-L-glutamine] | able to be cleaved |  | 
11 | NC(=O)CC[C@H](NC(=O)OCC12CC3CC(CC(C3)C1)C2)C(=O)O [Nα-(2-Adamantan-1-yl-methoxycarbonyl)-L-glutamine] | able to be cleaved |  | 
12 | CC(CCOC(=O)N[C@@H](CCC(N)=O)C(=O)O)CCc1ccccc1 (stereo partly drawn) [Nα-(3-Methyl-5-phenylpentanoxycarbonyl)-L-glutamine] | able to be cleaved |  | 
13 | CCC=CCCOC(=O)N[C@@H](CCC(N)=O)C(=O)O [Nα-(3-hexenyl)oxycarbonyl-L-glutamine] | able to be cleaved |  | 
14 | CCCC(C)(O)CC(=O)N[C@@H](CCC(N)=O)C(=O)O (stereo partly drawn) [Nα-(3-hydroxy-3-methyl-hexanoyl)-L-glutamine] | able to be cleaved |  | 
15 | COc1ccc(SC(=O)N[C@@H](CCC(N)=O)C(=O)O)cc1 [Nα-(4-methoxy-phenylsulfanylcarbonyl)-L-glutamine] | able to be cleaved |  | 
16 | CC(C)(C)C1CCC(OC(=O)N[C@@H](CCC(N)=O)C(=O)O)CC1 (stereo partly drawn) [Nα-(4-tert-Butylcyclohexyloxycarbonyl)-L-glutamine] | able to be cleaved |  | 
17 | C=CCCCCCCCCC(=O)N[C@@H](CCC(N)=O)C(=O)O [Nα-(11-undecenoyl)-L-glutamine] | able to be cleaved |  | 
18 | CCCCOC(=O)N[C@@H](CCC(N)=O)C(=O)O [Nα-Butyloxycarbonyl-L-glutamine] | able to be cleaved |  | 
19 | CC1=CCC(CCOC(=O)N[C@@H](CCC(N)=O)C(=O)O)C1(C)C (stereo partly drawn) [Nα-[2-(2,2,3-trimethyl-cyclopent-3-enyl)-ethoxycarbonyl)-L-glutamine] | able to be cleaved |  | 
20 | CCCCCCCCCC(=O)N[C@@H](CCC(N)=O)C(=O)O [Nα-decanoyl-L-glutamine] | able to be cleaved |  | 
21 | CCCCCCCCCCCCCC(=O)N[C@@H](CCC(N)=O)C(=O)O [Nα-tetradecanoyl-L-glutamine] | able to be cleaved |  | 

Row | SMILES | cleavage of substrate by enzyme (in words) [3] | Cleavage by enzyme [3] | other results
22 | O=C(O)c1cccc(C(=O)O)n1 [Pyridine-2,6dicarboxylic acid] |  |  | inhibition at 5000 µM [2]: 64.3%; inhibition at 5000 µM [1]: 100%
23 | CCCCCCCCCC(=O)N[C@@H](CCC(N)=O)C(=O)O [compound 3, Nα-decanoyl-L-glutamine] |  | +++ (+++ cleavage over 50%) | 
24 | NC(=O)CC[C@H](NC(=O)OCc1ccccc1)C(=O)O [compound 4, Carbobenzyloxy-L-glutamine] |  | ++ (++ cleavage 10–50%) | cleavage of substrate by enzyme (in words) ([3]; listed as Nα-Carbobenzyloxy-L-glutamine): able to be cleaved; cleavage of substrate by enzyme (in words) ([3]; listed as Nα-carbobenzyloxy-L-glutamine): can cleave
25 | CC(C)=CCCC(C)CCOC(=O)N[C@@H](CCC(N)=O)C(=O)O (stereo partly drawn) [compound 5, Nα-3,7-Dimethyl-6-octenyloxycarbonyl-L-glutamine] | can cleave | +++ (+++ cleavage over 50%) | 
26 | CCCCCCCCCCCC(=O)N[C@@H](CC(=O)O)C(=O)O [compound 6, N-Lauroyl-L-aspartate] |  | − | 
27 | CCCCCCCCCCCC(=O)N[C@@H](CCCCN)C(=O)O [compound 7, Nα-Lauroyl-L-lysine] |  | − | 
28 | CCCCCCCCCCCC(=O)N[C@@H](CCCNC(=N)N)C(=O)O [compound 8, Nα-Lauroyl-L-arginine] |  | − | 
29 | CCCCCCCCCCCC(=O)N[C@@H](C)C(=O)O [compound 9, N-lauroyl-L-alanine] |  | + (+ indicates cleavage < 10%) | 
30 | C[C@H](NC(=O)OCc1ccccc1)C(=O)O [compound 10, Carbobenzyloxy-L-alanine] |  | + (+ indicates cleavage < 10%) | 
31 | O=C(O)CC[C@H](NC(=O)OCc1ccccc1)C(=O)O [compound 11, Carbobenzyloxy-L-glutamate] |  | − | 
32 | O=C(O)C[C@H](NC(=O)OCc1ccccc1)C(=O)O [compound 13, Carbobenzyloxy-L-aspartate] |  | − | 
33 | O=C(N[C@@H](CO)C(=O)O)OCc1ccccc1 [compound 14, Carbobenzyloxy-L-serine] |  | − | 
34 | O=C(N[C@@H](Cc1ccc(O)cc1)C(=O)O)OCc1ccccc1 [compound 15, Carbobenzyloxy-L-tyrosine] |  | − | 
35 | O=C(O)CNC(=O)OCc1ccccc1 [compound 16, Carbobenzyloxy-L-glycine] |  | − | 
36 | O=C(N[C@@H](Cc1c[nH]cn1)C(=O)O)OCc1ccccc1 [compound 17, Carbobenzyloxy-L-histidine] |  | − | 
37 | CC(C)C[C@H](NC(=O)OCc1ccccc1)C(=O)O [compound 18, Carbobenzyloxy-L-leucine] |  | − | 
38 | NC(=O)CC[C@@H](NC(=O)OCc1ccccc1)C(=O)O [compound 19, Carbobenzyloxy-D-glutamine] | cannot cleave | − | 
39 | COC(=O)[C@H](CCC(N)=O)NC(=O)OCc1ccccc1 [compound 20, Carbobenzyloxy-L-glutamine-O-Me] | does not cleave | − | 
40 | NC(=O)CC[C@H](NC(=O)OCc1ccccc1)C(=O)NCC(=O)O [compound 21, Carbobenzyloxy-L-glutamine- Gly-OH] (HELM PEPTIDE1{[O=C(OCc1ccccc1)[*:2]].Q.G}$$$$V2.0) | does not cleave | − | 
41 | O=C(CC[C@H](NOCc1ccccc1)C(=O)O)NCc1ccccc1 [compound 22, 4-benzylcarbamoyl-2-(S)-benzyloxyamino-butyric acid] | cannot cleave | − | 
